Read-outs that look alike come from different tables or passages of the source.
Key:
[1] = system: HIV-1 (HIV-1 RF, HIV-1 NL4-3) in CEM-SS / MT-2 cells; test: Cytopathic effect (CPE) inhibition assay (XTT/MTT dye reduction); assay type: cell-based
How it was run: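 Readout is XTT reduction (A450, 4 h) after six days of culturing virus-infected (moi 0.025–0.819) or mock-infected CEM-SS/MT-2 cells, 2×10^4 per well, with half-log compound series. Antiviral EC50 and cytotoxic CC50 are relative to uninfected compound-free cells. Therapeutic index is CC50 divided by EC50.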

461, 84V, 90M virus = test: Phenotypic susceptibility assay at Virologic, Inc.; assay type: cell-based, HIV-1; conditions: Human immunodeficiency virus 1, read-out: EC50 or IC50 (mM), values with asterisk (IC50)
Procedure: Compounds were tested in phenotypic susceptibility assays at Virologic, Inc., (See Petropoulos C. J., Parkin N. T., Limoli K. L., Lie Y. S., Wrin T., Huang W., Tian H., Smith D., Winslow G. A., Capon D J, Whitcomb J M. 2000, “A novel phenotypic drug susceptibility assay for human immunodeficiency virus type 1,” Antimicrob Agents Chemother 44(4):920–928) or using the assay described here. MT-2 cells were infected with either HIV-1 NL4-3 or HIV-1 NL4-3([…]) and incubated in the presence of serial 0.5 log dilutions of test compounds. Three days later, culture supernatants were collected and virus production, as determined by p24 ELISA, was assayed. Percent inhibition was calculated as p24 concentration in compound-treated samples as compared to infected, compound-free controls. Inhibition of viral replication is determined by measuring reduction in HIV p24 present in the culture supernatant, using a Beckman-Coulter p24HIV-1 Ag EIA kit and following the supplied protocol. Absorbance is read on a MRX microplate reader (Dynex Technologies). The EC50 was calculated as the concentration of compound that effected a decrease in the p24 production by infected, compound-treated cells to 50% of that produced by infected, compound-free cells.

[2] = molecular target: T1, HIV-1 protease (Q7S mutant form) (Human immunodeficiency virus type 1 group M subtype B, UniProt P04585, Q495S); test: HIV-1 Protease RET assay; assay type: biochemical; conditions: Ave. Ki (nM), RET assay, Q7S enzyme, Morrison tight binding fit
T1 construct: made in house
How it was run: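 Ki values fitted with the Morrison tight-binding equation from steady-state RET cleavage (ex 340, em 490 nm) of 5 μM RE(EDANS)SQNYPIVQK(DABCYL)R. Buffer pH 4.8 acetate, 1M NaCl, 5 mM DTT, 1 mg/ml BSA, 10% DMSO; 2 nM Q7S mutant dimer, 37 °C, 12 min.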

[3] = system: HIV-1 NL4-3 or HIV-1 NL4-3(I84V/L90M); test: Susceptibility assay, p24 ELISA in infected MT-2 cells; assay type: cell-based; conditions: Human immunodeficiency virus 1, NL43, MT2, read-out: EC50 or IC50 (mM), values without asterisk (EC50)
How it was run: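 MT-2 cells infected with HIV-1 NL4-3 or the I84V/L90M mutant were incubated with 0.5 log serial compound dilutions for three days. Supernatant p24 was quantified by ELISA. EC50 is the concentration reducing p24 to 50% of infected, compound-free controls.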

[4] = Human immunodeficiency virus 1, NL43, read-out: Ave CPE EC50
[5] = Human immunodeficiency virus 1, NL43, read-out: Ave CPE EC50 (mM)

Row | SMILES | EC50 [1, 4] | IC50 (461, 84V, 90M virus) | Ki [2] | EC50 [1, 5] | EC50 [3]
1 | Cc1cnccc1CNC(=O)[C@H]1N(C(=O)[C@@H](O)[C@H](Cc2ccccc2)NC(=O)c2cccc(O)c2C)CSC1(C)C [Example A10, 3-[2-Hydroxy-3-(3-hydroxy-2-methyl-benzoylamino)-4-phenyl-butyryl]-5,5-dimethyl-thiazolidine-4-carboxylic acid (3-methyl-pyridin4-ylmethyl)-amide] | 104 nM | 118 nM | < 0.1 nM |  | 
2 | Cc1c(O)cccc1C(=O)N[C@@H](Cc1ccccc1)[C@H](O)C(=O)N1CSC(C)(C)[C@H]1C(=O)NCC1CCCCC1 [Example A13, 3-[2-Hydroxy-3-(3-hydroxy-2-methyl-benzoylamino)-4-phenyl-butyryl]-5,5-dimethyl-thiiazolidine-4-carboxylic acid cyclohexylmethyl-amide] | 495 nM | 921 nM | 3.4 nM |  | 
3 | Cc1c(O)cccc1C(=O)N[C@@H](Cc1ccccc1)[C@H](O)C(=O)N1CSC(C)(C)[C@H]1C(=O)NCc1ccc2c(c1)OCO2 [Example A14, 3-((2S,3S)-2-Hydroxy-3-{[1-(3-hydroxy-2-methyl-phenyl)-methanoyl]-amino}-4-phenyl-butanoyl)-5,5-dimethyl-thiazolidine-4-carboxylic acid (benzo[1,3]dioxol-5-ylmethyl)-amide] |  | 226 nM | 0.32 nM | 61 nM | 
4 | Cc1c(O)cccc1C(=O)N[C@@H](Cc1ccccc1)[C@H](O)C(=O)N1CSC(C)(C)[C@H]1C(=O)NCc1ccco1 [Example A15, (R)-3-((2S,3S)-2-Hydroxy-3-{[1-(3-hydroxy-2-methyl-phenyl)-methanoyl]-amino}-4-phenyl-butanoyl)-5,5-dimethyl-thiazolidine-4-carboxylic acid (furan-2-ylmethyl)-amide] | 55 nM | 57 nM | < 0.1 nM |  | 
5 | Cc1c(O)cccc1C(=O)N[C@@H](Cc1ccccc1)[C@H](O)C(=O)N1CSC(C)(C)[C@H]1C(=O)NCC1CC1 [Example A20, (R)-3-((2S,3S)-2-Hydroxy-3-{[1-(3-hydroxy-2-methyl-phenyl)-methanoyl]-amino}-4-phenyl-butanoyl)-5,5-dimethyl-thiazolidine-4-carboxylic acid cyclopropylmethyl-amide] | 35 nM | 219 nM | 0.16 nM |  | 
6 | Cc1c(O)cccc1C(=O)N[C@@H](Cc1ccccc1)[C@H](O)C(=O)N1CSC(C)(C)[C@H]1C(=O)NC1CCCCC1 [Example A21, (R)-3-((2S,3S)-2-Hydroxy-3-{[1-(3-hydroxy-2-methyl-phenyl)-methanoyl]-amino)-4-phenyl-butanoyl)-5,5-dimethyl-thiazolidine-4-carboxylic acid cyclohexylamide] | 49 nM | 655 nM | < 0.1 nM |  | 
7 | Cc1c(O)cccc1C(=O)N[C@@H](Cc1ccccc1)[C@H](O)C(=O)N1CSC(C)(C)[C@H]1C(=O)NCc1cccs1 [Example A23, (R)-3-((2S,3S)-2-Hydroxy-3-{[1-(3-hydroxy-2-methyl-phenyl)-methanoyl]-amino}-4-phenyl-butanoyl)-5,5-dimethyl-thiazolidine-4-carboxylic acid (thiophen-2-ylmethyl)-amide] | 17 nM | 48 nM | 2.6 nM |  | 
8 | Cc1ccccc1CNC(=O)[C@H]1N(C(=O)[C@@H](O)[C@H](Cc2ccccc2)NC(=O)O[C@H]2CCOC2)CSC1(C)C [Example B1, {1-Benzyl-3-[5,5-dimethyl-4-(2-methyl-benzylcarbamoyl)-thiazoldin-3-yl]-2-hydroxy-3-oxo-propyl}-carbamic acid tetrahydropfuran-3-yl-ester] | 49 nM | 236 nM | 0.27 nM |  | 
9 | Cc1ccccc1CNC(=O)[C@H]1N(C(=O)[C@@H](O)[C@H](Cc2ccccc2)NC(=O)c2cccc3c2CCN3)CSC1(C)C [Example B6, 2,3-Dihydro-1H-indole-4-carboxylic acid {(1S,2S)-1-benzyl-3-[(R)-5,5-dimethyl-4-(2-methyl-benzylcarbamoyl)-thiazolidin-3-yl]-2-hydroxy-3-oxo-propyl}-amide] | 95 nM | 405 nM | 0.31 nM |  | 
10 | Cc1ccccc1CNC(=O)[C@H]1N(C(=O)[C@@H](O)[C@H](Cc2ccccc2)NC(=O)COc2c(C)cccc2C)CSC1(C)C [Example B7, (R)-3-{(2S,3S)-3-[2-(2,6-Dimethylphenoxy)-ethanoylamino]-2-hydroxy-4-phenyl-butanoyl}-5,5-dimethylthiazolidine-4-carboxylic acid 2-methyl-benzylamide] | 265 nM | 333 nM | < 0.1 nM |  | 
11 | C/C=C(\C)CNC(=O)[C@H]1N(C(=O)[C@@H](O)[C@H](Cc2ccccc2)NC(=O)c2cccc(O)c2C)CSC12CCCC2 [Example C34, (R)-3-((2S,3S)-2-Hydroxy-3-{[1-(3-hydroxy-2-methyl-phenyl)-methanoyl]-amino}-4-phenyl-butanoyl)-1-thia-3-aza-spiro[4.4]nonane-4-carboxylic acid ((E)-2-methyl-but-2-enyl)-amide] |  |  | < 0.1 nM | 22 nM | 0.000627 mM
12 | Cc1ccc(F)cc1CNC(=O)[C@H]1N(C(=O)[C@@H](O)[C@H](Cc2ccccc2)NC(=O)c2cccc(O)c2C)CSC12CCCC2 [Example C36, (R)-3-((2S,3S)-2-Hydroxy-3-{[1-(3-hydroxy-2-methyl-phenyl)-methanoyl]-amino}-4-phenyl-butanoyl)-1-thia-3-aza-spiro[4.4]nonane-4-carboxylic acid 5-fluoro-2-methyl-benzylamide] | 50 nM |  | < 0.1 nM |  | 0.000666 mM
13 | Cc1c(O)cccc1C(=O)N[C@@H](Cc1ccccc1)[C@H](O)C(=O)N1CSC2(CCCC2)[C@H]1C(=O)N[C@H]1CCCc2ccccc21 [Example C37, (R)-3-((2S,3S)-2-Hydroxy-3-{[1-(3-hydroxy-2-methyl-phenyl)-methanoyl]-amino}-4-phenyl-butanoyl)-1-thia-3-aza-spiro[4.4]nonane-4-carboxylic acid (1,2,3,4-tetrahydro-naphthalen-1-yl)-amide] | 27 nM |  | 0.61 nM |  | 0.00129 mM
14 | CCCNC(=O)[C@H]1N(C(=O)[C@@H](O)[C@H](Cc2ccccc2)NC(=O)c2cccc(O)c2C)CSC12CCC2 [Example C38, (R)-7-((2S,3S)-2-Hydroxy-3-{[1-(3-hydroxy-2-methyl-phenyl)-methanoyl]-amino}-4-phenyl-butanoyl)-5-thia-7-aza-spiro[3.4]octane-8-carboxylic acid propylamide] | 42 nM |  | < 0.1 nM |  | 0.00131 mM
15 | Cc1c(O)cccc1C(=O)N[C@@H](Cc1ccccc1)[C@H](O)C(=O)N1CSC2(CCC2)[C@H]1C(=O)N[C@@H]1C=CCCC1 [Example C39, (R)-7-((2S,3S)-2-Hydroxy-3-{[1-(3-hydroxy-2-methyl-phenyl)-methanoyl]-amino}-4-phenyl-butanoyl)-5-thia-7-aza-spiro[3.4]octane-8-carboxylic acid (S)-cyclohex-2-enylamide] | 13 nM |  | < 0.1 nM |  | 0.000404 mM
16 | C=CCCC(=O)[C@H]1N(C(=O)[C@@H](O)[C@H](Cc2ccccc2)NC(=O)c2cccc(O)c2C)CSC1(C)C [Example D1, N-[(1S,2S)-1-Benzyl-3-((R)-5,5-dimethyl-4-pent-4-enoyl-thiazolidin-3-yl)-2-hydroxy-3-oxo-propyl]-3-hydroxy-2-methyl-benzamide] |  |  | < 0.1 nM | 52 nM | 0.000601 mM
